# Source: patent US20230398125A1, “TREATING HEPATITIS” (Albireo AB, priority 2022, published 2023)
# Marks after values point to notes of the source that are not given here.
# Columns and labels:
# Human NTCP = target: T1, Human NTCP (Homo sapiens, UniProt Q14973); assay: [3H]preS1 peptide binding to NTCP-HEK293 cells
# T1 construct: expressed in transfected cells; peptide purchased from Pharmaron
# T1 sequence (Q14973 1-349): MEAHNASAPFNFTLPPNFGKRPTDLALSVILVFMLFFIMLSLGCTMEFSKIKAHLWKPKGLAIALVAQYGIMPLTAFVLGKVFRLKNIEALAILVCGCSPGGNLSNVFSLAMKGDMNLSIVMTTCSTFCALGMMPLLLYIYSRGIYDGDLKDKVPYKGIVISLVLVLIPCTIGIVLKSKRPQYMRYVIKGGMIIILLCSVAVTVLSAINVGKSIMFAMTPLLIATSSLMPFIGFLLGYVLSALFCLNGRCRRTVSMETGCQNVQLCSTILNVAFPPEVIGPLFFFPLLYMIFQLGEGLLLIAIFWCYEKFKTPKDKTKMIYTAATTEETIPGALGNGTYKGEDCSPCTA
# Method: Human embryonic kidney (HEK293) cells were stably transfected with human NTCP, C-terminally tagged with the FLAG epitope (here referred to as NTCP-HEK293 cells). Cells were maintained at 37° C., 5% CO2 and 95% humidity in DMEM/F-12 medium (Thermo Fisher Scientific, Waltham, Mass., USA) supplemented with 10% fetal calf serum (Sigma-Aldrich, St. Louis, Mo., USA), 4 mM L-glutamine, and penicillin/streptomycin. HepG2 cells stably transfected with NTCP-FLAG (here referred to as NTCP-HepG2) were cultured under the same conditions in DMEM with all supplements listed above, except for L-glutamine. […]
# Bile acid transport measurements were performed in the NTCP-HEK293 cells with tritium-labelled taurocholic acid (here referred to as [^3H]TC) (20 Ci/mmol, 0.09 mCi/mL, Perkin Elmer, Waltham, USA). […] Cell-associated radioactivity of [^3H]TC or [^3H]preS1 was quantified by liquid scintillation counting in a Packard Microplate Scintillation Counter TopCount NXT (Packard Instrument Company, Meriden, USA). Transport rates and [^3H]preS1 binding were determined in counts per minute (cpm). The mean of the 0% control was subtracted and the net [^3H]TC transport rates and net [^3H]preS1 binding rates, respectively, were expressed as % of control. IC50 values were calculated from quadruplicate determinations by GraphPad Prism 6 (GraphPad, San Diego, Calif., USA). […]
# HBV genotype C = assay: Serum HBV DNA in HBV-infected PXB mice; assay type: in vivo, hepatitis B virus; settings: for serum HBV DNA levels: HBV-infected PXB mice, group mean, assay limit 4×10^4 copies/mL serum
# Method: Target volume of blood was collected from all surviving animals under isoflurane anesthesia via the retro-orbital plexus/sinus using Intramedic™ Polyethylene Tubing at each time point. Two microliters (2 μL) from the collected blood were used for human albumin measurements. The remaining blood was centrifuged to separate serum to be used for analyzing the indicated biomarkers. Blood samples were collected according to Table 8.
# The individual blood samples of the animals were left at room temperature for at least 5 minutes to coagulate and then centrifuged at 13200×g, 4° C. for 3 minutes to obtain serum. The serum was divided into separate labeled microtubes and stored at −80° C. until analysis.
# Real-time PCR detection was used to measure the serum HBV DNA concentration using the KUBIX HBV qPCR Kit (KUBIX Inc.) and CFX96 Touch™ Real-Time PCR Detection System (Bio-Rad Laboratories, Inc., Hercules, Calif., USA). Ten microliters (10 μL) of the HBV 2×PCR Solution were added into 10 μL of the heated sample. The initial activation was conducted at 95° C. for 2 minutes. Subsequent PCR amplification consisted of 45 cycles of denaturation at 95° C. for 5 seconds and annealing and extension at 54° C. for 30 seconds per cycle in a CFX96 Touch™ Real-Time PCR Detection System. The average serum HBV DNA level was calculated from the values of the two separate wells.
# The lowest quantification limit of this assay was 4×10^4 copies/mL serum.
smiles,measurement,setting,value
"CCCCC1CN(c2ccccc2)c2cc(SC)c(O/C=C(\F)C(=O)O)cc2S(=O)(=O)N1C (centres unmarked) [Compound 1, (Z)-3-((3-butyl-2-methyl-7-(methylthio)-1,1-dioxido-5-phenyl-2,3,4,5-tetrahydro-1,2,5-benzothiadiazepin-8-yl)oxy)-2-fluoroacrylic acid]",IC50,Human NTCP,0.149 µM
same,serum HBV DNA compared to controls,"HBV genotype C; 30 mg/kg, Day 7",lower
same,serum HBV DNA levels,"HBV genotype C; 10 mg/kg p.o. once daily Day 0-14, Day 0 (pre-dose)",4.0 × 10^4
same,serum HBV DNA levels,"HBV genotype C; 10 mg/kg p.o. once daily Day 0-14, Day 7",1.4 × 10^5
same,serum HBV DNA levels,"HBV genotype C; 10 mg/kg p.o. once daily Day 0-14, Day 14",8.5 × 10^5
same,serum HBV DNA levels,"HBV genotype C; 10 mg/kg p.o. once daily Day 0-14, Day 21",1.3 × 10^6
same,serum HBV DNA levels,"HBV genotype C; 10 mg/kg p.o. once daily Day 0-14, Day 28",8.5 × 10^6
same,serum HBV DNA levels,"HBV genotype C; 10 mg/kg p.o. once daily Day 0-14, Day 35",2.7 × 10^7*
same,serum HBV DNA levels,"HBV genotype C; 10 mg/kg p.o. once daily Day 0-14, Day 42",1.2 × 10^8*
same,serum HBV DNA levels,"HBV genotype C; 30 mg/kg p.o. once daily Day 0-14, Day 0 (pre-dose)",4.0 × 10^4
same,serum HBV DNA levels,"HBV genotype C; 30 mg/kg p.o. once daily Day 0-14, Day 7",6.1 × 10^4
same,serum HBV DNA levels,"HBV genotype C; 30 mg/kg p.o. once daily Day 0-14, Day 14",1.9 × 10^5
same,serum HBV DNA levels,"HBV genotype C; 30 mg/kg p.o. once daily Day 0-14, Day 21",3.1 × 10^5
same,serum HBV DNA levels,"HBV genotype C; 30 mg/kg p.o. once daily Day 0-14, Day 28",2.7 × 10^6
same,serum HBV DNA levels,"HBV genotype C; 30 mg/kg p.o. once daily Day 0-14, Day 35",1.1 × 10^7
same,serum HBV DNA levels,"HBV genotype C; 30 mg/kg p.o. once daily Day 0-14, Day 42",5.4 × 10^7
same,effect against HBV genotype C infection in PXB-mice,HBV genotype C; oral dosing before HBV infection,prophylactic effects
